Series [1] deals with 3D7-strain P. falciparum asexual parasites. The experiment in a line: P. falciparum asexual growth inhibition assay (Pf GIA). The following applies: dose response confirmation; read-out: Pf asexual growth inhibition assays IC50. Type of series: cell-based, Plasmodium falciparum. The method in brief:
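LDH readout: absorbance at 650 nm after 10 min at room temperature with lactate/APAD/NBT/diaphorase mix on thawed plates. Cultures (0.25% parasitemia, 2% hematocrit) were treated 72 h at 37°C in low-oxygen gas. Inhibition was normalised to 50 μM chloroquine and DMSO; n=3 biological replicates.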

A further series concerns HepG2 cells. As to the kind of experiment: HepG2 cytotoxicity assay. The following applies: for Pb ODA (this manuscript) HepG2 cytoxicity: HepG2 cytotoxicity listed with the Pb ODA data set (this manuscript); for IC50: read-out: HepG2 cytotoxicity assay IC50, dose response confirmation. The procedure, abridged:
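HepG2 cells, 2,500 per well in MEM with 10% FBS and 1% NEAA, exposed to compounds for 48 h at 37°C, 5% CO2. Viability read by fluorescence; percent inhibition relative to 50 μM doxorubicin and DMSO controls.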

Series [2] deals with P. berghei ookinete development. The conditions noted are these: for % inhibition, Replicate A / % inhibition, Replicate B: primary screen at 1 μM.
Setting [3] is: read-out: Pb ODA (this manuscript) IC50, P. berghei ookinete development assay, this manuscript.
Where [4] appears, read: read-out: Pb Ookinete development assay IC50, dose response confirmation.
[5] abbreviates: unified HepG2 value across the three screens.
Setting [6] is: read-out: Pb ODA IC50, this manuscript.
Setting [7] is: HepG2 values of the three screens unified.

Like-named read-outs stand apart in the source and are kept apart here. A value given as a limit tells only on which side of the number the result lay.

By IC50 is commonly meant the midpoint of a concentration-inhibition curve. Regarding `Cc1[nH]c(C)c(-c2ccc(OCc3ccccc3)cc2)c(=O)c1Br` [TCMDC-138901], the IC50 in series [1] was 108 nM. For the same compound, in the series on HepG2 cells, the “Pb ODA (this manuscript) HepG2 cytoxicity” value was found to be 100.00 µM and the IC50 was found to be 100000 nM. Also, in series [2], the “Is compound selective in assay? Pb ODA active?” value (“Is compound selective” for short) is 1 (key: 1: YES; 0: NO); the “% inhibition, Replicate A” value is 91.81%; the “% inhibition, Replicate B” value was 92.28%. Also, the IC50 in series [2] (setting [3]) was 220 nM. For the same compound, the IC50 in series [2] (setting [4]) came out at 224 nM.

With `OCCc1ccc(Nc2nccc(-c3nnc4ccccn34)n2)cc1` [TCMDC-138924], the IC50 in series [1] is under 0.2 nM; with HepG2 cells, 100000 nM; in series [2] (setting [6]), 400 nM; in series [2] (setting [4]), 395 nM. Besides, the “Unified cytotox” value in the series on HepG2 cells (setting [5]) is 100.00 µM. For the same compound, the “Is compound selective” value in series [2] (1: YES, 0: NO) was 1 (1: YES). In addition, the “% inhibition, Replicate A” value in series [2] was 70.77%. The “% inhibition, Replicate B” value in series [2] was 81.57%.

For the compound `Cc1[nH]c(C)c(-c2ccc(OCc3ccc(F)cc3)cc2)c(=O)c1Br` [TCMDC-138928], the IC50 in series [1] stood at 108 nM. For the same compound, in the series on HepG2 cells, the “Pb ODA (this manuscript) HepG2 cytoxicity” value is reported as 100.00 µM and the IC50 came out at 100000 nM. In series [2], the “Is compound selective” value is 1 (key: 1: YES; 0: NO); the “% inhibition, Replicate A” value stood at 93.24%; the “% inhibition, Replicate B” value amounted to 106.54%. Moreover, in series [2] (setting [3]), the IC50 stood at 600 nM. The IC50 in series [2] (setting [4]) is 595 nM.

As for `CCCOc1cc(OCCC)cc(-c2cc(=O)c3ccccc3[nH]2)c1` [TCMDC-138943], the IC50 in series [1] amounted to 76 nM; in the series on HepG2 cells, 100000 nM; in series [2] (setting [6]), 550 nM; in series [2] (setting [4]) it was 547 nM. Besides, the “Unified cytotox” value with HepG2 cells (setting [5]) is given as 100.00 µM. The “Is compound selective” value in series [2] (1: YES, 0: NO) was 1 (1: YES). Besides, the “% inhibition, Replicate A” value in series [2] is listed as 86.05%. In series [2], the “% inhibition, Replicate B” value was 83.39%.

As for `COc1ccc2nc3cc(Cl)ccc3c(NCCN(C)C)c2c1` [TCMDC-139093], in series [1], the IC50 turned out to be 48 nM. Also, in the series on HepG2 cells, the “Pb ODA (this manuscript) HepG2 cytoxicity” value was determined as 15.85 µM and the IC50 came to 15800 nM. In series [2], the “Is compound selective” value was 0 (key: 1: YES; 0: NO); the “% inhibition, Replicate A” value turned out to be 73.14%; the “% inhibition, Replicate B” value is given as 67.89%. Moreover, in series [2] (setting [4]), the IC50 stood at 2200 nM.

In the case of `CN1Cc2cc(NC(=O)/C=C/c3ccccc3Cl)ccc2C(C)(C)C1.Cl` [TCMDC-139315], the IC50 in series [1] turned out to be 679 nM; in the series with HepG2 cells, 20400 nM; in series [2] (setting [6]), 560 nM; in series [2] (setting [4]) it was 563 nM. Also, the “Unified cytotox” value in the series on HepG2 cells (setting [5]) came to 20.42 µM. For the same compound, the “Is compound selective” value in series [2] (1: YES, 0: NO) was 1 (1: YES). Besides, in series [2], the “% inhibition, Replicate A” value amounted to 114.62%. Also, the “% inhibition, Replicate B” value in series [2] stood at 130.13%.

In the case of `O=c1cc(NCCCN(Cc2ccccc2)Cc2ccccc2)[nH]c2ccccc12` [TCMDC-139368], the IC50 in series [1] stood at 1120 nM; in the series with HepG2 cells, 33900 nM; in series [2] (setting [6]), 2870 nM; in series [2] (setting [4]), 2870 nM. In the series on HepG2 cells (setting [5]), the “Unified cytotox” value was determined as 33.88 µM. For the same compound, the “Is compound selective” value in series [2] (1: YES, 0: NO) is on record as 1 (1: YES). Moreover, the “% inhibition, Replicate A” value in series [2] stood at 31.96%. Further, in series [2], the “% inhibition, Replicate B” value is 60.20%.

In the case of `CCOC(=O)[C@H](Cc1cc([N+](=O)[O-])c(Oc2ccc(OC)c(Cc3ccc(OC)c(C(C)C)c3)c2)c([N+](=O)[O-])c1)NC(=O)C(F)(F)F` [TCMDC-139398], the IC50 was 9490 nM in series [1], 100000 nM with HepG2 cells, 4900 nM in series [2] (setting [6]) and 4900 nM in series [2] (setting [4]). Besides, in the series on HepG2 cells (setting [5]), the “Unified cytotox” value was 100.00 µM. Also, the “Is compound selective” value in series [2] (1: YES, 0: NO) is 1 (1: YES). For the same compound, the “% inhibition, Replicate A” value in series [2] is recorded as 63.87%. The “% inhibition, Replicate B” value in series [2] was 33.42%.

With `Cl.O=c1cc(NCCCNCc2sc(Br)c(Br)c2Br)[nH]c2ccccc12` [TCMDC-139647], the IC50 amounted to 977 nM in series [1], 34700 nM in the series with HepG2 cells, 1960 nM in series [2] (setting [6]) and 1960 nM in series [2] (setting [4]). In addition, in the series on HepG2 cells (setting [5]), the “Unified cytotox” value is reported as 34.67 µM. In series [2] (1: YES, 0: NO), the “Is compound selective” value is 1 (1: YES). Further, the “% inhibition, Replicate A” value in series [2] stood at 55.06%. In series [2], the “% inhibition, Replicate B” value is reported as 82.69%.

Turning to `Cl.Oc1cc(-c2nc(-c3ccccc3)[nH]c2-c2ccncc2)ccc1Cl` [TCMDC-139660], in series [1], the IC50 was found to be 1790 nM. In addition, in the series on HepG2 cells, the “Unified cytotox” value was determined as 9.77 µM and the IC50 is 9770 nM. In addition, in series [2], the “Is compound selective” value was 0 (key: 1: YES; 0: NO); the “% inhibition, Replicate A” value is given as 79.35%; the “% inhibition, Replicate B” value is on record as 69.44%. For the same compound, the IC50 in series [2] (setting [6]) came out at 1760 nM. Moreover, in series [2] (setting [4]), the IC50 stood at 1760 nM.

On to `CC(C)Nc1nc(NC2CCCCC2)nc(N2CCCCCCC2)n1` [TCMDC-139688], for which the IC50 in series [1] turned out to be 2240 nM; in the series with HepG2 cells, 33100 nM; in series [2] (setting [4]), 3260 nM. Besides, in the series with HepG2 cells (setting [5]), the “Unified cytotox” value is 33.11 µM. For the same compound, in series [2] (1: YES, 0: NO), the “Is compound selective” value is 1 (1: YES). Also, the “% inhibition, Replicate A” value in series [2] stood at 67.11%. In series [2], the “% inhibition, Replicate B” value was 52.41%.

For `COc1cc(NC(=O)Nc2ccc(Br)cc2C(=O)Nc2ccc(Br)cc2)cc(OC)c1OC` [TCMDC-139733], the IC50 in series [1] was found to be 2090 nM; in the series on HepG2 cells, 100000 nM; in series [2] (setting [6]) it was 6380 nM; in series [2] (setting [4]), 6380 nM. Further, the “Unified cytotox” value in the series with HepG2 cells (setting [5]) amounted to 100.00 µM. Besides, in series [2] (1: YES, 0: NO), the “Is compound selective” value is 1 (1: YES). For the same compound, the “% inhibition, Replicate A” value in series [2] turned out to be 44.63%. In series [2], the “% inhibition, Replicate B” value was determined as 66.05%.

Take `C=C[C@H]1CN(CCCCCCC)CC[C@H]1CC(=O)Nc1cnnc2ccc(OC)cc12.O=C(O)C(=O)O` [TCMDC-139791]: the IC50 was 276 nM in series [1], 33900 nM in the series on HepG2 cells, 2770 nM in series [2] (setting [6]) and 2770 nM in series [2] (setting [4]). In the series with HepG2 cells (setting [5]), the “Unified cytotox” value stood at 33.88 µM. Also, the “Is compound selective” value in series [2] (1: YES, 0: NO) is 1 (1: YES). Moreover, the “% inhibition, Replicate A” value in series [2] was found to be 17.33%. Moreover, the “% inhibition, Replicate B” value in series [2] was determined as 54.49%.

Take `COc1ccc(Cn2ccc3c4c(N)nc(N)nc4ccc32)cc1` [TCMDC-139862]: the IC50 in series [1] is under 0.2 nM; with HepG2 cells, 11 nM; in series [2] (setting [6]), 320 nM; in series [2] (setting [4]), 315 nM. Further, the “HepG2 cytoxicity (Pb ODA, this manuscript)” value with HepG2 cells was determined as 0.011 µM. Moreover, the Unified cytotox in the series with HepG2 cells (setting [7]) is listed as 0.011 µM. Also, the “Is compound selective” value in series [2] (1: YES, 0: NO) is 0 (0: NO). Moreover, the “% inhibition, Replicate A” value in series [2] stood at 43.74%. Also, the “% inhibition, Replicate B” value in series [2] came out at 74.79%.

For `COc1ccc2nccc([C@@H](O)CN3CCC(NCCOc4cc(C(F)(F)F)ccc4F)CC3)c2c1.O=C(O)C(=O)O` [TCMDC-140658], the IC50 in series [1] is 35 nM; in the series with HepG2 cells it was 3.43 nM; in series [2] (setting [6]), 3210 nM; in series [2] (setting [4]), 3210 nM. In addition, the “HepG2 cytoxicity (Pb ODA, this manuscript)” value in the series with HepG2 cells stood at 0.00343 µM. Further, the Unified cytotox in the series on HepG2 cells (setting [7]) turned out to be 0.00343 µM. In addition, in series [2] (1: YES, 0: NO), the “Is compound selective” value is recorded as 0 (0: NO). Further, the “% inhibition, Replicate A” value in series [2] came to 63.44%. Also, the “% inhibition, Replicate B” value in series [2] is 46.33%.

The values are drawn from publication PMC6753678, “Fueling Open Innovation for Malaria Transmission-Blocking Drugs: Hundreds of Molecules Targeting Early Parasite Mosquito Stages” (Frontiers in Microbiology, 2019).
